The target of this assay is T1, UDP-N-acetylglucosamine--peptide N-acetylglucosaminyltransferase 110 kDa subunit (Homo sapiens) (UniProt O15294).
T1 sequence (whole entry): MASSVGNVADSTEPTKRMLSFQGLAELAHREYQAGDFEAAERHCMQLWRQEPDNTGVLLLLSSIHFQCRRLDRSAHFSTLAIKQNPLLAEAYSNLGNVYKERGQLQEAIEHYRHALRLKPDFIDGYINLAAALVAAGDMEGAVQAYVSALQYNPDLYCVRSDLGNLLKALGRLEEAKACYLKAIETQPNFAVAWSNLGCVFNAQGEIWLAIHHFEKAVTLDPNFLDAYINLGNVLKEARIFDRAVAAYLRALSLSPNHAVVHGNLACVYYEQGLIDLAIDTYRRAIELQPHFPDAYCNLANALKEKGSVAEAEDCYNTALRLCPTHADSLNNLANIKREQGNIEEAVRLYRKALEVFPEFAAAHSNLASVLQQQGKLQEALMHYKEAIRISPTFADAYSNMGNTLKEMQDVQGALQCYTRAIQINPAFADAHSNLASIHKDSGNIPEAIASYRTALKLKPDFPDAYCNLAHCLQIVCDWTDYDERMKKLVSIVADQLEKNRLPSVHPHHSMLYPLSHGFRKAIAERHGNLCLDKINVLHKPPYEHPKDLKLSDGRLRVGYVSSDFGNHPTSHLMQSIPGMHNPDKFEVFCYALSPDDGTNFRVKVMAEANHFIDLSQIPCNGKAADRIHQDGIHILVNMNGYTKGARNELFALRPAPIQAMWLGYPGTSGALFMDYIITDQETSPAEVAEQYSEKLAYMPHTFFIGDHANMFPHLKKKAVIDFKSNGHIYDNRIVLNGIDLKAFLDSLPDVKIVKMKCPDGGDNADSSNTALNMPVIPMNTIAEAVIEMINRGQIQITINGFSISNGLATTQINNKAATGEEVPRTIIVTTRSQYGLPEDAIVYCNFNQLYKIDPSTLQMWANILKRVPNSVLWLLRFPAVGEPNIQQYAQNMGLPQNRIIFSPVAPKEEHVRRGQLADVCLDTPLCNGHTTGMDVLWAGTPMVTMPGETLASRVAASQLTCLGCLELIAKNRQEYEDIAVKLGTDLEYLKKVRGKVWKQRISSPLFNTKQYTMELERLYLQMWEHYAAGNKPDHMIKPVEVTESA
Put plainly: Activity at human OGT by Western blot analysis.

The structures appear in SMILES notation. Active and inactive are the calls of the source. The rule behind the calls is not given here.

With `CC(=O)N[C@H]1[C@@H](OP(=O)(O)OP(=O)(O)OC[C@H]2O[C@@H](n3ccc(=O)[nH]c3=O)[C@H](O)[C@@H]2O)O[C@H](CN=[N+]=[N-])[C@@H](O)[C@@H]1O`, the outcome was Active.

In the case of `CC(=O)N[C@@H]1[C@@H](O)[C@H](O)[C@@H](CN=[N+]=[N-])O[C@@H]1O`, the outcome was Active.
